Test results: patent US20100247525A1 (priority 2006, published 2010)
Values joined by “and” are separate entries in the source; they are usually repeats but may differ in a detail not shown here. Equal entries are not always repeated.

Experiments:
NFkappaB translocation = conditions: mouse, in vivo
human TNF-α = target: T1, human TNF-α (Homo sapiens, UniProt P01375); conditions: in vivo
T1 construct: purchased Chemicon, Inc

LeTx pre-sensitized mice = conditions: mouse, in vivo

T1 sequence (P01375 77-233 limits assumed): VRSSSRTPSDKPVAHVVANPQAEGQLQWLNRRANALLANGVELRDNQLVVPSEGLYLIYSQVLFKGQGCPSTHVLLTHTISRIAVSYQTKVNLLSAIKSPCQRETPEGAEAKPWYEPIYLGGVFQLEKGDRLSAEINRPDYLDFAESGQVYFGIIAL

## Cc1ccc(=O)n(-c2ccccc2)c1 [Pirfenidone]
NFkappaB translocation
  survival enhancement: 40% and 20%

## Etanercept
Human TNF-α
  prevention of lethality: prevents lethality
  protection when the death initiator is human TNF-α: protects

## PAM3-CSK-4
LeTx pre-sensitized mice
  initiation of RDP: initiates RDP
  initiation of RDP (death initiator): death initiators
